Columns and labels:
Assay type in all cases: in vivo
Myzus persicae = Myzus persicae leaf dip test (capsicum leaves, third instar nymphs); details: foliar, 72 h after release, dead and moribund combined, compared to untreated control, read-out: percent mortality
Nilaparvata lugens = Nilaparvata lugens seedling dip test (paddy seedlings, third instar nymphs); details: 72 h after release, dead and moribund combined, compared to untreated control, read-out: percent mortality
Bemisia tabaci = Bemisia tabaci leaf dip test (brinjal leaves, whitefly adults); details: foliar, 72 h after release, dead and moribund combined, compared to untreated control, read-out: percent mortality
Method: The leaf dip method was used for testing, wherein the required quantity of the compound was weighed and dissolved in a tube containing a solvent solution. The tube was put on a vortex at 2000 rpm for 90 min for proper mixing and then the mixture was diluted with a 0.01% Triton-X solution to the desired test concentration. Brinjal leaves were dipped in the compound solution for 10 seconds, shade dried for 20 min and then placed, with the abaxial side of the leaf up, on 4 ml of a 1% agar-agar solution in respective container caps. Known numbers of freshly emerged whitefly adults were collected, using a modified aspirator, and released into a perforated container in which the cap containing the treated leaf was placed. The containers were kept in a plant growth chamber at a temperature of 25° C. and a relative humidity of 70%. Observations on dead, moribund and alive adults were recorded 72 h after the release. Percent mortality was calculated by combining dead and moribund adults and comparing the result to the one of the untreated control. The compounds 32 53 58 79 80 81 82 84 87 88 89 94 95 96 101 102 103 104 105 106 107 108 109 112 113 114 115 116 117 118 119 120 123 124 125 126 127 130 135 138 139 140 144 145 147 150 154 156 158 159 164 167 168 169 170 171 188 189 191 198 199 200 201 202 206 207 208 209 210 213 216 223 224 225 227 228 231 232 233 234 235 236 238 242 243 244 246 and 247 recorded≥70 percent mortality @ 300 PPM.

Row | SMILES | mortality at 300 ppm (Myzus persicae) | mortality at 300 ppm (Nilaparvata lugens) | mortality at 300 ppm (Bemisia tabaci)
1 | O=c1nc2n(Cc3cnc(Cl)s3)cccc-2c(=O)n1-c1ccc(OCC(F)(F)F)cc1 [Compound 243, 8-((2-chlorothiazol-5-yl)methyl)-3-(4-(2,2,2-trifluoroethoxy)phenyl)pyrido[2,3-d]pyrimidine-2,4(3H,8H)-dione] | ≥ 70% | ≥ 70% | ≥ 70%
2 | O=c1nc2n(Cc3ccc(Cl)nc3)cccc-2c(=O)n1-c1cccc(OC(F)(F)F)c1 [Compound 123, 8-((6-chloropyridin-3-yl)methyl)-3-(3-(trifluoromethoxy)phenyl)pyrido[2,3-d]pyrimidine-2,4(3H,8H)-dione] | ≥ 70% | ≥ 70% | ≥ 70%
3 | O=c1nc2n(Cc3cnc(Cl)s3)cccc-2c(=O)n1-c1ccc2c(c1)OC(F)(F)O2 [Compound 247, 8-((2-chlorothiazol-5-yl)methyl)-3-(2,2-difluorobenzo[d][1,3]dioxol-5-yl)pyrido[2,3-d]pyrimidine-2,4(3H,8H)-dione] | ≥ 70% | ≥ 70% | ≥ 70%
4 | O=c1nc2n(Cc3cnc(Cl)nc3)cccc-2c(=O)n1-c1ccc(Br)c(F)c1 [Compound 235, 3-(4-bromo-3-fluorophenyl)-8-((2-chloropyrimidin-5-yl)methyl)pyrido[2,3-d]pyrimidine-2,4(3H,8H)-dione] | ≥ 70% | ≥ 70% | ≥ 70%
5 | O=c1nc2n(Cc3cnc(Cl)nc3)cccc-2c(=O)n1-c1ccc(Br)cc1 [Compound 159, 3-(4-bromophenyl)-8-((2-chloropyrimidin-5-yl)methyl)pyrido[2,3-d]pyrimidine-2,4(3H,8H)-dione] | ≥ 70% | ≥ 70% | ≥ 70%
6 | O=c1c2cccn(Cc3ccc(Cl)nc3)c-2nc(=S)n1-c1ccc(OC(F)(F)F)cc1 [Compound 209, 8-((6-chloropyridin-3-yl)methyl)-2-thioxo-3-(4-(trifluoromethoxy)phenyl)-2,8-dihydropyrido[2,3-d]pyrimidin-4(3H)-one] |  | ≥ 70% | ≥ 70%
7 | O=c1nc2n(Cc3cnc(Cl)nc3)cccc-2c(=O)n1-c1ccc(F)c(Cl)c1 [Compound 154, 3-(3-chloro-4-fluorophenyl)-8-((2-chloropyrimidin-5-yl)methyl)pyrido[2,3-d]pyrimidine-2,4(3H,8H)-dione] | ≥ 70% | ≥ 70% | ≥ 70%
8 | O=c1nc2n(Cc3ccc(Cl)nc3)cccc-2c(=O)n1-c1ccc2c(c1)OC(F)(F)O2 [Compound 199, 8-((6-chloropyridin-3-yl)methyl)-3-(2,2-difluorobenzo[d][1,3]dioxol-5-yl)pyrido[2,3-d]pyrimidine-2,4(3H,8H)-dione] | ≥ 70% | ≥ 70% | ≥ 70%
9 | O=c1nc2n(Cc3cnc(Cl)nc3)cccc-2c(=O)n1-c1c(F)cccc1F [Compound 206, 8-((2-chloropyrimidin-5-yl)methyl)-3-(2,6-difluorophenyl)pyrido[2,3-d]pyrimidine-2,4(3H,8H)-dione] |  | ≥ 70% | ≥ 70%
10 | O=c1nc2n(Cc3cnc(Cl)nc3)cccc-2c(=O)n1-c1cccc(OC(F)(F)F)c1 [Compound 130, 8-((2-chloropyrimidin-5-yl)methyl)-3-(3-(trifluoromethoxy)phenyl)pyrido[2,3-d]pyrimidine-2,4(3H,8H)-dione] |  | ≥ 70% | ≥ 70%
11 | O=c1nc2n(Cc3cnc(Cl)nc3)cccc-2c(=O)n1-c1cc(F)cc(C(F)(F)F)c1 [Compound 244, 8-((2-chloropyrimidin-5-yl)methyl)-3-(3-fluoro-5-(trifluoromethyl)phenyl)pyrido[2,3-d]pyrimidine-2,4(3H,8H)-dione] | ≥ 70% | ≥ 70% | ≥ 70%
12 | O=c1nc2n(Cc3cnc(Cl)nc3)cccc-2c(=O)n1-c1ccc2c(c1)OC(F)(F)O2 [Compound 198, 8-((2-chloropyrimidin-5-yl)methyl)-3-(2,2-difluorobenzo[d][1,3]dioxol-5-yl)pyrido[2,3-d]pyrimidine-2,4(3H,8H)-dione] | ≥ 70% | ≥ 70% | ≥ 70%
13 | O=c1nc2n(Cc3cnc(Cl)nc3)cccc-2c(=O)n1-c1ccc(F)c(F)c1 [Compound 120, 8-((2-chloropyrimidin-5-yl)methyl)-3-(3,4-difluorophenyl)pyrido[2,3-d]pyrimidine-2,4(3H,8H)-dione] | ≥ 70% | ≥ 70% | ≥ 70%
14 | O=c1nc2n(Cc3cnc(Cl)nc3)cccc-2c(=O)n1-c1ccc(OC(F)(F)F)c(Cl)c1 [Compound 227, 3-(3-chloro-4-(trifluoromethoxy)phenyl)-8-((2-chloropyrimidin-5-yl)methyl)pyrido[2,3-d]pyrimidine-2,4(3H,8H)-dione] |  |  | ≥ 70%
15 | O=c1nc2n(Cc3ccc(Cl)nc3)cccc-2c(=O)n1-c1cc(C(F)(F)F)cc(C(F)(F)F)c1 [Compound 107, 3-(3,5-bis(trifluoromethyl)phenyl)-8-((6-chloropyridin-3-yl)methyl)pyrido[2,3-d]pyrimidine-2,4(3H,8H)-dione] | ≥ 70% |  | ≥ 70%
16 | O=c1nc2n(Cc3cnc(Cl)nc3)cccc-2c(=O)n1-c1ccccc1F [Compound 200, 8-((2-chloropyrimidin-5-yl)methyl)-3-(2-fluorophenyl)pyrido[2,3-d]pyrimidine-2,4(3H,8H)-dione] |  | ≥ 70% | ≥ 70%
17 | O=c1nc2n(Cc3ccc(Cl)nc3)cccc-2c(=O)n1-c1ccc(OC(F)(F)F)cc1 [Compound 126, 8-((6-chloropyridin-3-yl)methyl)-3-(4-(trifluoromethoxy)phenyl)pyrido[2,3-d]pyrimidine-2,4(3H,8H)-dione] | ≥ 70% |  | ≥ 70%
18 | O=c1nc2n(Cc3cnc(Cl)nc3)cccc-2c(=O)n1-c1ccc(Cl)c(Cl)c1 [Compound 158, 8-((2-chloropyrimidin-5-yl)methyl)-3-(3,4-dichlorophenyl)pyrido[2,3-d]pyrimidine-2,4(3H,8H)-dione] |  |  | ≥ 70%
19 | Cc1ccc(-n2c(=O)nc3n(Cc4cnc(Cl)nc4)cccc-3c2=O)cc1 [Compound 144, 8-((2-chloropyrimidin-5-yl)methyl)-3-(p-tolyl)pyrido[2,3-d]pyrimidine-2,4(3H,8H)-dione] |  |  | ≥ 70%
20 | Cn1cc(-n2c(=O)nc3n(Cc4cnc(Cl)s4)cccc-3c2=O)cn1 [Compound 89, 8-((2-chlorothiazol-5-yl)methyl)-3-(1-methyl-1H-pyrazol-4-yl)pyrido[2,3-d]pyrimidine-2,4(3H,8H)-dione] | ≥ 70% |  | ≥ 70%
21 | COc1cc(-n2c(=O)nc3n(Cc4cnc(Cl)nc4)cccc-3c2=O)ccc1Cl [Compound 171, 3-(4-chloro-3-methoxyphenyl)-8-((2-chloropyrimidin-5-yl)methyl)pyrido[2,3-d]pyrimidine-2,4(3H,8H)-dione] |  | ≥ 70% | ≥ 70%
22 | O=c1nc2n(Cc3ccc(C(F)(F)F)nc3)cccc-2c(=O)n1-c1ccc(Cl)cc1 [Compound 145, 3-(4-chlorophenyl)-8-((6-(trifluoromethyl)pyridin-3-yl)methyl)pyrido[2,3-d]pyrimidine-2,4(3H,8H)-dione] |  |  | ≥ 70%
23 | CC(C)n1c(=O)nc2n(Cc3cnc(Cl)nc3)cccc-2c1=O [Compound 84, 8-((2-chloropyrimidin-5-yl)methyl)-3-isopropylpyrido[2,3-d]pyrimidine-2,4(3H,8H)-dione] | ≥ 70% |  | ≥ 70%
24 | O=c1nc2n(Cc3cnc(Cl)nc3)cccc-2c(=O)n1-c1ccc(Cl)cc1F [Compound 147, 3-(4-chloro-2-fluorophenyl)-8-((2-chloropyrimidin-5-yl)methyl)pyrido[2,3-d]pyrimidine-2,4(3H,8H)-dione] |  | ≥ 70% | ≥ 70%
25 | O=c1nc2n(Cc3cnc(Cl)s3)cccc-2c(=O)n1-c1ccc(Cl)cc1 [Compound 80, 3-(4-chlorophenyl)-8-((2-chlorothiazol-5-yl)methyl)pyrido[2,3-d]pyrimidine-2,4(3H,8H)-dione] | ≥ 70% |  | ≥ 70%
26 | O=c1nc2n(Cc3cnc(Cl)nc3)cccc-2c(=O)n1-c1ccc(Cl)c(C(F)(F)F)c1 [Compound 224, 3-(4-chloro-3-(trifluoromethyl)phenyl)-8-((2-chloropyrimidin-5-yl)methyl)pyrido[2,3-d]pyrimidine-2,4(3H,8H)-dione] |  | ≥ 70% | ≥ 70%
27 | O=c1nc2n(Cc3ccc(C(F)(F)F)nc3)cccc-2c(=O)n1-c1ccc(F)cc1 [Compound 156, 3-(4-fluorophenyl)-8-((6-(trifluoromethyl)pyridin-3-yl)methyl)pyrido[2,3-d]pyrimidine-2,4(3H,8H)-dione] |  |  | ≥ 70%
